Measurements from patent US5162328A, “N-[3-[2-(1H-imidazol-1-yl)ethoxy]phenyl]-4-(2-thienyl)-2-pyrimidinamine and pharmacologically acceptable salts” (American Cyanamid Company, priority 1991, dated 1992).
Where two headings read alike, the source gives them in different places.

Test: Pharmacokinetics in dogs (plasma concentration by HPLC)
Format: in vivo, dog (beagle)
Conditions: for AUC(0-inf): read-out: AUCO- (to infinite time); for concentration at 0.5 h / concentration at 1 h / concentration at 2 h / concentration at 4 h / concentration at 7 h / Cmax / AUC(0-t) at 4 h: one dog (Dog 1); for concentration at 0.5 h / concentration at 1 h / concentration at 2 h / concentration at 4 h / concentration at 7 h: heading: Plasma concentration; for AUC(0-t) at 4 h: read-out: AUC0-4
Protocol: Since dogs are used in toxicology studies of antiasthma compounds, this species is chosen for pharmacokinetic evaluations. Use of the dog permits the pharmacokinetic comparison of 2 or more compounds in the same test animal, an evaluation which could not be conveniently performed in a smaller species. For each test compound, normal dogs are given a dose of 2.0 mg/kg/day for 5 consecutive days. There is a washout period of 1 month between the study of each of the test compounds in the same four dogs. Each test compound is administered as a solution of 5 mg/ml in either 0.05 or 0.1N HCl which is dispensed into a gelatin capsule immediately prior to dosage.
Heparinized blood samples are obtained from each animal on the first, third and fifth day of dosage at 0.5, 1.0, 2.0, 4.0, 7.0, 12.0 and 24.0 hours after the dose. The samples are centrifuged immediately to obtain plasma which is frozen until analyzed.
Analysis of plasma is performed using High Performance Liquid Chromatography (HPLC). The analytical procedure is essentially identical for each compound. The internal standard used for N-[3-[2-(1H-imidazol-1-yl)ethoxy]phenyl]-4-(2-thienyl)2-pyrimidinamine is 2-chloro-11-(4-methyl-1-piperazinyl)dibenz[b,f][1,4]oxazepine succinate, while for 2-methyl-N^4 -[4-(4-pyridinyl)-2-pyrimidinyl]-1,4-benzenediamine dihydrochloride and N-[4-[2-(diethylamino)ethoxy]phenyl]-4-(4-pyridinyl)-2-pyrimidnamine dihydrochloride the internal standard is 7-ethoxy-coumarin. In a typical procedure, a 0.4 ml volume of acetonitrile containing internal standard is added a 0.2 ml volume of serum. The sample is mixed by vortexing and centrifuged. The clear protein free supernatent fluid is decanted into a clean tube and evaporated to dryness. The dry residue is dissolved in 0.2 ml of HPLC mobile phase and 50 ul of this solution injected. Peaks corresponding to the test compound being measured and to the internal standard compound are quantitated by their absorption of ultraviolet light at 280 nm. Each set of analytical samples is accompanied by the analysis of a group of standard dog plasma samples prepared to contain amounts of the compound being measured which encompasses the concentration range of the samples.
Four normal beagle dogs weighing between 9.2 and 10.2 Kg are used in the study.

[1] = dog, plasma, po, 2 mg/kg/day, Dog 1, day 1, 2 mg/kg/day PO
[2] = dog, plasma, po, 2 mg/kg/day, Dog 1, day 3, 2 mg/kg/day PO
[3] = dog, plasma, po, 2 mg/kg/day, Dog 1, day 5, 2 mg/kg/day PO
[4] = dog, plasma, po, 2 mg/kg/day, day 1, 2 mg/kg/day PO
[5] = dog, plasma, po, 2 mg/kg/day, day 3, 2 mg/kg/day PO
[6] = dog, plasma, po, 2 mg/kg/day, day 5, 2 mg/kg/day PO

## CCN(CC)CCOc1ccc(Nc2nccc(-c3ccncc3)n2)cc1.Cl.Cl [Compound 3, N-[4-[2-(diethylamino)ethoxy]phenyl]-4-(4-pyridinyl)-2-pyrimidinamine dihydrochloride, reference compound]
[1]
  Tmax: 1 h
  half-life: 1.77 h
  AUC(0-inf): 374 ng·h/mL
[2]
  Tmax: 1 h
  half-life: 1.25 h
  AUC(0-inf): 423 ng·h/mL
[3]
  Tmax: 1 h
  half-life: 2.16 h
  AUC(0-inf): 392 ng·h/mL
dog, plasma, po, 2 mg/kg/day, day 1, 0.5 h, 2 mg/kg/day PO
  concentration at 0.5 h: 30 ng/mL
dog, plasma, po, 2 mg/kg/day, day 1, 1.0 h, 2 mg/kg/day PO
  concentration at 1 h: 125 ng/mL
dog, plasma, po, 2 mg/kg/day, day 1, 2.0 h, 2 mg/kg/day PO
  concentration at 2 h: 102 ng/mL
dog, plasma, po, 2 mg/kg/day, day 1, 4.0 h, 2 mg/kg/day PO
  concentration at 4 h: 40 ng/mL
dog, plasma, po, 2 mg/kg/day, day 1, 7.0 h, 2 mg/kg/day PO
  concentration at 7 h: < 30 ng/mL
[4]
  Cmax: 125 ng/mL
  AUC(0-t) at 4 h: 302 ng·h/mL
dog, plasma, po, 2 mg/kg/day, day 3, 0.5 h, 2 mg/kg/day PO
  concentration at 0.5 h: 124 ng/mL
dog, plasma, po, 2 mg/kg/day, day 3, 1.0 h, 2 mg/kg/day PO
  concentration at 1 h: 192 ng/mL
dog, plasma, po, 2 mg/kg/day, day 3, 2.0 h, 2 mg/kg/day PO
  concentration at 2 h: 81 ng/mL
dog, plasma, po, 2 mg/kg/day, day 3, 4.0 h, 2 mg/kg/day PO
  concentration at 4 h: 34 ng/mL
dog, plasma, po, 2 mg/kg/day, day 3, 7.0 h, 2 mg/kg/day PO
  concentration at 7 h: < 30 ng/mL
[5]
  Cmax: 192 ng/mL
  AUC(0-t) at 4 h: 362 ng·h/mL
dog, plasma, po, 2 mg/kg/day, day 5, 0.5 h, 2 mg/kg/day PO
  concentration at 0.5 h: < 30 ng/mL
dog, plasma, po, 2 mg/kg/day, day 5, 1.0 h, 2 mg/kg/day PO
  concentration at 1 h: 153 ng/mL
dog, plasma, po, 2 mg/kg/day, day 5, 2.0 h, 2 mg/kg/day PO
  concentration at 2 h: 82 ng/mL
dog, plasma, po, 2 mg/kg/day, day 5, 4.0 h, 2 mg/kg/day PO
  concentration at 4 h: 55 ng/mL
dog, plasma, po, 2 mg/kg/day, day 5, 7.0 h, 2 mg/kg/day PO
  concentration at 7 h: < 30 ng/mL
[6]
  Cmax: 153 ng/mL
  AUC(0-t) at 4 h: 293 ng·h/mL
dog, plasma, po, 2 mg/kg/day, derived from mean of half-life values, read-out: elimination constant (converted)
  k el: 0.000155 s⁻¹
Four dogs, 2 mg/kg/day PO
  measurable concentrations in plasma (in words): only one dog provided measurable concentrations of compound in the plasma
